Patent US4430328A, “Ruminant lactation improvement” (Eli Lilly and Company, priority 1982, dated 1984)

Assays:
Holstein cows = experiment: nine-week comparative activity and persistency test of glycopeptides; format: in vivo; details: 600 mg/head/day
Protocol: Another test was carried out to determine the comparative activity of glycopeptides and their persistency in altering milk production. Holstein cows were assigned as they calved to blocks of […] cows each. Within each block a random order of treatments was assigned. A nine-week study was started two weeks following calving. All cows underwent a one week preliminary period during which they received corn silage-concentrate, grain, hay and water. During the following eight week period, in addition to the normal feed ration, one group of six animals received no treatment (controls), another group of six animals received 600 mg/head/day actaplanin, and a third group of six cows received 600 mg/head/day of glycopeptide A35512B. Average daily milk production, milk composition, and persistency of milk production were analyzed. The data in Table VI are the averages for the daily determinations for the entire nine week trial period. The table reports average milk production and milk composition of nontreated controls and treated groups. The persistency values were calculated by dividing the average milk production during the eight week treatment period by average production during the preliminary non-treatment period. Persistency values express how well the treatment groups performed after initialization of treatment compared to performance before treatment initialization. Normal persistency for the trial was expected to be about 94 to about 96 percent. All treatment groups had higher persistencies, thus indicating an observable response to treatment even during a short term.

dairy cows = details: cited from earlier work

| SMILES | Milk Composition Fat (Holstein cows) | Milk Composition Protein (Holstein cows) | Milk Composition Solids (Holstein cows) | protein content compared to non-treated controls (Holstein cows) | Milk Produced (Holstein cows; average of daily determinations, nine week trial) | Persistency (Holstein cows; average production in eight week treatment period divided by preliminary period) | fat content of milk (dairy cows) | fat-corrected-milk production (dairy cows) | volume of milk produced (dairy cows) |
| --- | --- | --- | --- | --- | --- | --- | --- | --- | --- |
| COC(=O)[C@H]1NC(=O)[C@H]2NC(=O)[C@H](NC(=O)[C@@H]3NC(=O)C4NC(=O)[C@H](NC(=O)[C@H](N)c5cccc(O)c5Oc5cc(O[C@@H]6O[C@H](C)[C@H](O)[C@H](O)[C@@H]6O)c(Cl)c4c5)[C@H](O)c4ccc(cc4)Oc4cc3cc(c4O[C@@H]3O[C@H](CO)[C@@H](O)[C@@H](O[C@@H]4O[C@@H](C)[C@@H](O)[C@@H](O)[C@H]4O)[C@H]3O)Oc3ccc(cc3)[C@H]2O[C@H]2C[C@](C)(N)[C@H](O)[C@H](C)O2)c2ccc(O[C@H]3O[C@@H](CO)[C@H](O)[C@@H](O)[C@@H]3O)c(c2)-c2c(O)cc(O)cc21 [A35512B] | 3.36% | 3.36% | 11.44% | may be enhanced | 56.0 pounds/day | 99.4% | – | – | – |
| CC[C@@]1([C@@H]2O[C@@H]([C@H]3O[C@@](O)(CO)[C@H](C)C[C@@H]3C)C[C@@H]2C)CC[C@H]([C@]2(C)CC[C@]3(C[C@H](O)[C@@H](C)[C@@H]([C@@H](C)[C@@H](OC)[C@H](C)C(=O)O)O3)O2)O1 [monensin] | – | – | – | – | – | – | significantly reduced | unchanged | increase |
